Legend:
[1] = test system: mice with acute hyperuricemia; assay: In vivo activity of reducing serum uric acid (acute hyperuricemia induced with xanthine and potassium oxonate); set-up: species or system Kunming mice; details: for BUA (blood uric acid concentration): hyperuricemic Kunming mice; for anti-gout activity, compared with positive control benzbromarone: batch 1, conclusion from Table 2
Experimental: All newly synthesized target compounds were primarily evaluated for their activities of reducing blood uric acid in vivo (mice). Benzbromarone and lesinurad were selected as positive control drugs.
Example 46. In Vivo Activity of Reducing Serum Uric Acid
• (1) Experimental animal: Kunming mice, provided by Experimental Animal Center of Shandong University • (2) Preparation of compounds: Compounds were dissolved in ethanol and CMC-Na. • (3) Modeling drugs: Xanthine and potassium oxonate • (4) Reference drugs: Benzbromarone and Lesinurad • (5) Test method: The model group consisted of mice with acute hyperuricemia induced with 0.2 mL xanthine intragastric injection and 0.2 mL potassium oxonate subcutaneous injection, and not treated with test compound.

[2] = batch 1, Model 1462.6 ± 194.3, Blank 377.2 ± 27.6
[3] = batch 2, Model 576.5 ± 120.5, Blank 262 ± 43.6, Blank (CMC-Na) 286 ± 90.9

| SMILES | BUA (blood uric acid concentration) [1, 2] [µM] | also measured |
| --- | --- | --- |
| CCOC(=O)C(C)Sc1nc2cccnc2n1-c1c(C)cc(C)cc1C (centres unmarked) [Compound X3] | 983.2 ± 122.6 | – |
| CCOC(=O)C(C)Sc1nc2cccnc2n1-c1cccc2ccccc12 (centres unmarked) [Compound M3] | 1321.5 ± 183.5 | – |
| CC(Sc1nc2ncccc2n1-c1ccc(C2CC2)c2ccccc12)C(=O)O (centres unmarked) [Compound T7] | – | BUA (blood uric acid concentration) [1, 3]: 189.7 ± 67.8 µM |
| CCOC(=O)C(C)(C)Sc1nc2cccnc2n1-c1cccc2ccccc12 [Compound M4] | 1363 ± 184.7 | – |
| CC(Sc1nc2cccnc2n1-c1ccc(C2CC2)c2ccccc12)C(=O)O (centres unmarked) [Compound Q7] | 763.2 ± 248.7 | – |
| O=C(O)CCCSc1nc2cccnc2n1-c1cccc2ccccc12 [Compound M6] | 1342 ± 144.3 | – |
| O=C(O)CSc1nc2cccnc2n1-c1ccc(C2CC2)c2ccccc12 [Compound Q5] | 824 ± 109.9 | – |
| CC(C)(Sc1nc2cccnc2n1-c1cccc2ccccc12)C(=O)O [Compound M8] | 1229 ± 150.2 | – |
| O=C(O)CSc1nc2cccnc2n1-c1cccc2ccccc12 [Compound M5] | 1307.5 ± 195.3 | melting point: 129 to 130 °C |
| CC(C)(Sc1nc2cccnc2n1-c1ccc(C2CC2)c2ccccc12)C(=O)O [Compound Q8] | 1448 ± 216.7 | – |
| CCOC(=O)CCCSc1nc2cccnc2n1-c1cccc2ccccc12 [Compound M2] | 634.7 ± 97.7 | anti-gout activity, compared with positive control benzbromarone [1]: significant anti-gout activity |
| CCOC(=O)CCCSc1nc2ncccc2n1-c1ccc(C2CC2)c2ccccc12 [Compound T2] | – | BUA (blood uric acid concentration) [1, 3]: 334 ± 65.7 µM |
| Cc1cc(C)c(-n2c(SC(C)(C)C(=O)O)nc3cccnc32)c(C)c1 [Compound X8] | 1288 ± 211.5 | – |
| CC(Sc1nc2cccnc2n1-c1cccc2ccccc12)C(=O)O (centres unmarked) [Compound M7] | 1307.2 ± 133.1 | – |
| CCOC(=O)CSc1nc2ncccc2n1-c1ccc(C2CC2)c2ccccc12 [Compound T1] | – | BUA (blood uric acid concentration) [1, 3]: 353.5 ± 35.6 µM |
| CCOC(=O)C(C)(C)Sc1nc2cccnc2n1-c1c(C)cc(C)cc1C [Compound X4] | 689.2 ± 53.4 | anti-gout activity, compared with positive control benzbromarone [1]: significant anti-gout activity |
| CCOC(=O)CSc1nc2cccnc2n1-c1c(C)cc(C)cc1C [Compound X1] | 1255.2 ± 184 | – |

| SMILES | BUA (blood uric acid concentration) [1, 2] [µM] | also measured |
| --- | --- | --- |
| CCOC(=O)CSc1nc2cccnc2n1-c1cccc2ccccc12 [Compound M1] | 1507.6 ± 229.2 | melting point: 116.5 to 117 °C |
| CCOC(=O)C(C)Sc1nc2cccnc2n1-c1ccc(C2CC2)c2ccccc12 (centres unmarked) [Compound Q3] | 672 ± 76.2 | anti-gout activity, compared with positive control benzbromarone [1]: significant anti-gout activity |
| CCOC(=O)C(C)(C)Sc1nc2ncccc2n1-c1ccc(C2CC2)c2ccccc12 [Compound T4] | – | BUA (blood uric acid concentration) [1, 3]: 306 ± 46.8 µM |
| O=C(O)CCCSc1nc2cccnc2n1-c1ccc(C2CC2)c2ccccc12 [Compound Q6] | 1490.7 ± 269.9 | – |
| Cc1cc(C)c(-n2c(SCCCC(=O)O)nc3cccnc32)c(C)c1 [Compound X6] | 655.2 ± 210.8 | anti-gout activity, compared with positive control benzbromarone [1]: significant anti-gout activity |
| CCOC(=O)C(C)Sc1nc2ncccc2n1-c1ccc(C2CC2)c2ccccc12 (centres unmarked) [Compound T3] | – | BUA (blood uric acid concentration) [1, 3]: 339 ± 29.8 µM |
| CC(C)(Sc1nc2ncccc2n1-c1ccc(C2CC2)c2ccccc12)C(=O)O [Compound T8] | – | BUA (blood uric acid concentration) [1, 3]: 295.2 ± 54 µM |
| CCOC(=O)C(C)(C)Sc1nc2cccnc2n1-c1ccc(C2CC2)c2ccccc12 [Compound Q4] | 1328.2 ± 163.8 | – |
| CCOC(=O)CSc1nc2cccnc2n1-c1ccc(C2CC2)c2ccccc12 [Compound Q1] | 1344.75 ± 287.5 | – |
| CCc1oc2ccccc2c1C(=O)c1cc(Br)c(O)c(Br)c1 [Benzbromarone, reference compound] | 762.5 ± 30.3 | – |
| O=C(O)CCCSc1nc2ncccc2n1-c1ccc(C2CC2)c2ccccc12 [Compound T6] | – | BUA (blood uric acid concentration) [1, 3]: 330 ± 29.1 µM |
| Cc1cc(C)c(-n2c(SC(C)C(=O)O)nc3cccnc32)c(C)c1 (centres unmarked) [Compound X7] | 727.2 ± 150.7 | anti-gout activity, compared with positive control benzbromarone [1]: significant anti-gout activity |
| Cc1cc(C)c(-n2c(SCC(=O)O)nc3cccnc32)c(C)c1 [Compound X5] | 1310.2 ± 155.8 | – |
| CCOC(=O)CCCSc1nc2cccnc2n1-c1c(C)cc(C)cc1C [Compound X2] | 1107.7 ± 195.1 | – |
| O=C(O)CSc1nc2ncccc2n1-c1ccc(C2CC2)c2ccccc12 [Compound T5] | – | BUA (blood uric acid concentration) [1, 3]: 342 ± 44.1 µM |
| O=C(O)CSc1nnc(Br)n1-c1ccc(C2CC2)c2ccccc12 [RDEA594, Lesinurad, reference compound] | – | BUA (blood uric acid concentration) [1, 3]: 409.5 ± 124.3 µM |
| CCOC(=O)CCCSc1nc2cccnc2n1-c1ccc(C2CC2)c2ccccc12 [Compound Q2] | 1422.6 ± 194.4 | – |
